Measurements: patent publication US9216983B2, “Dihydroorotate dehydrogenase inhibitors with selective anti-malarial activity” (BOARD OF REGENTS, UNIVERSITY OF TEXAS SYSTEM, priority 2007, dated 2015)
Several values for one entry are separate records, joined by “and”; a condition that tells them apart may be missing. Equal entries are not always repeated. Where two headings read alike, the source gives them in different places.

Experiments:
PbDHODH = PbDHODH (Plasmodium berghei, UniProt A0A509AEH5); experiment: DHODH enzyme inhibition assay, PbDHODH; format: biochemical, P. berghei
Method: (§1) Briefly, the assay solution contained 100 mM HEPES, pH 8.0, 150 mM NaCl, 10% glycerol, 0.1% Triton X-100, 20 micro molar COQD (coenzyme QD), 200 micro molar L-dihydroorotate, and 120 micro molar DCIP. Reactions are initiated by addition of enzyme to a final concentration in the range of about […] to about 50 nM while maintaining the temperature of a circulating water bath at 25° C.
(§2) Assay solutions were prepared as discussed above, except that DCIP is not present and the solution is depleted of oxygen by the inclusion of an oxidase/reductase system, such as, 0.1 mg/ml of glucose oxidase, 0.02 mg/ml catalase and 50 mM glucose. The data obtained is fitted to equation 1, to determine the IC50 values of the representative compounds.

PfDHODH = biological target: T1, PfDHODH (Plasmodium falciparum, UniProt Q08210); experiment: biochemical
T1 sequence (Q08210 24-569): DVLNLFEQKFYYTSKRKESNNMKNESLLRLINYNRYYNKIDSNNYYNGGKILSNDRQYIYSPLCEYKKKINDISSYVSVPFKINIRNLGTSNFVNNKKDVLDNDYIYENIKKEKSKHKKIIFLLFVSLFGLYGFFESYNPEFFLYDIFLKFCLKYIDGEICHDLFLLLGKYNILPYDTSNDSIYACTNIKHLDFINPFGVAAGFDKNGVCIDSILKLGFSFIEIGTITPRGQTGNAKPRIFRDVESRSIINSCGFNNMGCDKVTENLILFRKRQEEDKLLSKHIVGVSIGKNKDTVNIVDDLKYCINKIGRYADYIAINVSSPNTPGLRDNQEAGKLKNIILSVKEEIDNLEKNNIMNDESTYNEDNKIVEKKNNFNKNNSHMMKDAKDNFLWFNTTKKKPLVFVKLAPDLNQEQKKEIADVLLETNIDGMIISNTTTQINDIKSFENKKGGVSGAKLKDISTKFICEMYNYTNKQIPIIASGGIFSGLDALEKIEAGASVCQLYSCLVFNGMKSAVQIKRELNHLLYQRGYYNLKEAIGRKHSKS
Method: as §1, §2

P. falciparum = experiment: Inhibition of cell proliferation, 3H-hypoxanthine uptake in P. falciparum-infected erythrocytes; format: cell-based; conditions: Plasmodium falciparum, 3D7, Erythrocyte
Description: [formula] II. In Vitro Evaluation of Compound Efficacy on the Human Malaria Parasite, P. falciparum.

hDHODH = hDHODH (Homo sapiens, UniProt Q02127); experiment: DHODH enzyme inhibition assay, hDHODH; format: biochemical; conditions: Table 4, IC50 class; read-out: hDHODH
Method: as §1, §2

[1] = Table 4, IC50 class, read-out: PbDHODH
[2] = Table 4, IC50 class, read-out: PfDHODH
[3] = Table 5, read-out: PfDHODH IC50
[4] = Table 5, 3D7 cells, read-out: EC50 P. falciparum 3D7 cells

Sequence of hDHODH (Q02127 whole entry): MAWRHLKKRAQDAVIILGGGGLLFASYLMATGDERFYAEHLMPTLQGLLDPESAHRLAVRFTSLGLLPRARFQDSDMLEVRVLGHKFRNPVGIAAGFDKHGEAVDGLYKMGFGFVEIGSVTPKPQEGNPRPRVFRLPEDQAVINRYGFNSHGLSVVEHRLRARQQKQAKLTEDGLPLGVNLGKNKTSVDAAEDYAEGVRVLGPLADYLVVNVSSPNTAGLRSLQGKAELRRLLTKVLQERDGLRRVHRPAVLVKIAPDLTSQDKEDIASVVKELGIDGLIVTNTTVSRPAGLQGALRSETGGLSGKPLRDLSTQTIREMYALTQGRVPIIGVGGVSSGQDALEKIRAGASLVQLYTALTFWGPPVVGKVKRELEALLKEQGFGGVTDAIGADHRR
Sequence of PbDHODH (A0A509AEH5 entry or part of it): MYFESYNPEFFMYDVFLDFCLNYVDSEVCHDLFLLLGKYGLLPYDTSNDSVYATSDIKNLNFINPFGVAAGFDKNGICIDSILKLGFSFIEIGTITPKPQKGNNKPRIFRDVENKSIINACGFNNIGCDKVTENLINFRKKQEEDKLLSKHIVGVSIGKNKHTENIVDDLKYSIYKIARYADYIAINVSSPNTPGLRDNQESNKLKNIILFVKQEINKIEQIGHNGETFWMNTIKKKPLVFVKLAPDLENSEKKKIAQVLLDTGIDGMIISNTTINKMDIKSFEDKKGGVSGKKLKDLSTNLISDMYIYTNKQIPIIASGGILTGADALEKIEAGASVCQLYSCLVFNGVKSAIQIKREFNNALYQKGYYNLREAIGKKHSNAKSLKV

SMILES | IC50 (hDHODH) [µM] | IC50 (PbDHODH; [1]) [µM] | IC50 (PfDHODH; [2]) [µM] | IC50 (PbDHODH; PbDHODH, Table 4, IC50 class) [µM] | further results
Cc1cc(Nc2ccc3ccccc3c2)n2ccnc2n1 |  |  |  |  | IC50 (PbDHODH; Table 3, average of the determinations, read-out: PbDHODH IC50 Ave (converted)): 2.8 µM; IC50 (PfDHODH; PfDHODH IC50, Table 3, single determinations): 0.16 µM and 0.14 µM; IC50 (PfDHODH; Table 3, average of the determinations, read-out: PfDHODH IC50 Ave (converted)): 0.15 µM; EC50 (P. falciparum; Table 3, 3D7, single determinations, read-out: P. falciparum 3D7 EC50 (converted)): 0.2 ± 0.001 µM
Cc1cc(Nc2cccc(F)c2)n2ncnc2n1 | > 10 | > 10 | 2 to 10 |  | 
Cc1cc(Nc2cccc(C(F)(F)F)c2)n2ncnc2n1 | > 10 | > 10 | > 10 |  | 
Cc1cc(NCCCc2ccccc2)n2ncnc2n1 | > 10 | > 10 | > 10 |  | 
Cc1cc(Nc2ccc(C#N)c(C(F)(F)F)c2)n2ncnc2n1 | 2 to 10 |  |  | > 10 | IC50 (PfDHODH; PfDHODH, Table 4, IC50 class): 2 to 10 µM
Cc1cc(Nc2ccc(C)c(F)c2)n2ncnc2n1 | > 10 | 2 to 10 | < 2 |  | 
Cc1cc(Nc2ccc(Cc3ccccc3)cc2)n2ncnc2n1 | 2 to 10 | > 10 | < 2 |  | 
Cc1ccc(Nc2cc(C)nc3ncnn23)c(F)c1 | > 10 | > 10 | > 10 |  | 
Cc1cc(Nc2ccc3[nH]c(C(F)(F)F)nc3c2)n2ncnc2n1 | > 10 | > 10 | > 10 |  | 
Cc1cc(Nc2ccc(OC(F)(F)F)cc2)n2ncnc2n1 | > 10 | > 10 | < 2 |  | 
Cc1cc(Nc2ccc(Cl)cc2)n2ncnc2n1 | > 10 | 2 to 10 | < 2 |  | 
Cc1cccc(Nc2cc(C)nc3ncnn23)c1 |  |  | 2 to 10 | > 10 | 
Cc1cc(Nc2ccccc2Cl)n2ncnc2n1 |  |  | > 10 | > 10 | 
Cc1ccc(Nc2cc(C)nc3ncnn23)cc1 |  |  | 2 to 10 | > 10 | 
COc1ccc(Nc2cc(C)nc3ncnn23)cc1 | > 10 | < 2 | < 2 |  | 
Cc1cc(Nc2ccc([N+](=O)[O-])cc2)n2ncnc2n1 |  |  | 2 to 10 | 2 to 10 | 
Cc1cc(Nc2ccc(Br)cc2)n2ncnc2n1 |  |  | 2 to 10 | > 10 | 
CCc1ccc(Nc2cc(C)nc3ncnn23)cc1 | > 10 |  | < 2 | 2 to 10 | 
CCCc1ccc(Nc2cc(C)nc3ncnn23)cc1 | > 10 |  | < 2 | 2 to 10 | 
Cc1cc(Nc2ccc(C(C)C)cc2)n2ncnc2n1 | > 10 |  | < 2 | < 2 | 
CCCCc1ccc(Nc2cc(C)nc3ncnn23)cc1 | > 10 |  | < 2 | 2 to 10 | 
Cc1cc(Nc2cc(F)ccc2F)n2ncnc2n1 |  |  | > 10 | > 10 | 
Cc1cc(Nc2c(F)cccc2F)n2ncnc2n1 |  |  | > 10 | > 10 | 
Cc1cc(Nc2ccc(F)c(F)c2F)n2ncnc2n1 | > 10 | > 10 | > 10 |  | 

SMILES | IC50 (hDHODH) [µM] | IC50 (PbDHODH; [1]) [µM] | IC50 (PfDHODH; [2]) [µM] | IC50 (PbDHODH; PbDHODH, Table 4, IC50 class) [µM] | further results
Cc1cc(Nc2cccc(F)c2F)n2ncnc2n1 |  |  | > 10 | > 10 | 
Cc1cc(Nc2cc(F)c(F)cc2F)n2ncnc2n1 |  |  | > 10 | > 10 | 
Cc1cc(Nc2c(F)cc(F)cc2F)n2ncnc2n1 | > 10 | > 10 | > 10 |  | 
Cc1cc(Nc2cc(F)cc(F)c2)n2ncnc2n1 | > 10 | > 10 | 2 to 10 |  | 
Cc1cc(Nc2ccc(F)c(F)c2)n2ncnc2n1 |  |  | 2 to 10 | 2 to 10 | 
CCCCCc1ccc(Nc2cc(C)nc3ncnn23)cc1 |  |  | < 2 | > 10 | 
CCCCCCc1ccc(Nc2cc(C)nc3ncnn23)cc1 |  |  | 2 to 10 | > 10 | 
CCCCCCCc1ccc(Nc2cc(C)nc3ncnn23)cc1 |  |  | > 10 | > 10 | 
CCCCCCCCc1ccc(Nc2cc(C)nc3ncnn23)cc1 |  |  | > 10 | > 10 | 
Cc1cc(Nc2ccc(C)c(C(F)(F)F)c2)n2ncnc2n1 | > 10 | 2 to 10 | < 2 |  | 
Cc1cc(Nc2ccc(C)c(C)c2)n2ncnc2n1 | > 10 | 2 to 10 | < 2 |  | 
Cc1cc(Nc2ccc(C(F)(F)F)c(F)c2)n2ncnc2n1 | > 10 | < 2 | < 2 |  | 
Cc1cc(Nc2cc(C(F)(F)F)cc(C(F)(F)F)c2)n2ncnc2n1 | > 10 | > 10 | > 10 |  | 
Cc1cc(Nc2ccc3c(c2)OCO3)n2ncnc2n1 | > 10 |  | < 2 | > 10 | 
Cc1cc(Nc2ccc(Br)c(C(F)(F)F)c2)n2ncnc2n1 | > 10 | < 2 | < 2 |  | 
Cc1cc(Nc2ccc(Br)c(C)c2)n2nc(C)nc2n1 |  |  |  |  | IC50 (PfDHODH; [3]): 0.0706 µM; EC50 (P. falciparum; [4]): 0.08 to 0.12 µM
Cc1nc2nc(C)c(C)c(Nc3ccc(C(F)(F)F)cc3)n2n1 [2,5,6-trimethyl-N-(4-(trifluoromethyl)phenyl)-[1,2,4]triazolo[1,5-a]pyrimidin-7-amine] |  |  |  |  | IC50 (PfDHODH; [3]): 3 ± 0.46 µM; EC50 (P. falciparum; [4]): 3.6 ± 0.004 µM
Cc1cc(Nc2ccc(C(F)(F)F)cc2)n2nc(C)nc2n1 [2,5-dimethyl-N-(4-(trifluoromethyl)phenyl)-[1,2,4]triazolo[1,5-a]pyrimidin-7-amine] |  |  |  |  | IC50 (PfDHODH; [3]): 0.65 ± 0.31 µM; EC50 (P. falciparum; [4]): 0.93 ± 0.018 µM
Cc1nc2ncnn2c(Nc2ccc(C(F)(F)F)cc2)c1C [5,6-dimethyl-N-(4-(trifluoromethyl)phenyl)-[1,2,4]triazolo[1,5-a]pyrimidin-7-amine] |  |  |  |  | IC50 (PfDHODH; [3]): 1.2 ± 0.33 µM; EC50 (P. falciparum; [4]): 2.7 ± 0.009 µM
Cc1nc2nc(C)c(Cl)c(Nc3ccc(C(F)(F)F)cc3)n2n1 [6-chloro-2,5-dimethyl-N-(4-(trifluoromethyl)phenyl)-[1,2,4]triazolo[1,5-a]pyrimidin-7-amine] |  |  |  |  | IC50 (PfDHODH; [3]): 0.62 ± 0.08 µM; EC50 (P. falciparum; [4]): 7.1 ± 0.04 µM
Cc1nc2ncnn2c(Nc2ccc(C(F)(F)F)cc2)c1Cl [6-chloro-5-methyl-N-(4-(trifluoromethyl)phenyl)-[1,2,4]triazolo[1,5-a]pyrimidin-7-amine] |  |  |  |  | IC50 (PfDHODH; [3]): 0.34 ± 0.06 µM; EC50 (P. falciparum; [4]): 2.7 ± 0.03 µM
Cc1cc(Nc2ccc(F)c(C)c2)n2ncnc2n1 [drawing 39] | 2 to 10 | > 10 | 2 to 10 |  | 
Cc1cc(Nc2ccc(OC(F)F)cc2)n2ncnc2n1 [drawing 44] |  |  | < 2 | > 10 | 
Cc1cc(Nc2ccc(C(F)(F)F)cc2)n2ncnc2n1 [drawing 93] |  |  |  |  | EC50 (P. falciparum; [4]): 0.33 ± 0.02 µM
